Experimental data published in patent publication US8247595B2, “Organic sulfur compound and its use for controlling harmful arthropod” (Sumitomo Chemical Company, Limited, priority 2007, dated 2012).

Key:
Format in all cases: in vivo
[1] = test system: Culex pipiens pallens; test: Test Example 4: larvae released into treated water, death rate of Culex pipiens pallens; conditions: 24 h, active ingredient concentration 3.5 ppm in water, 20 last-instar larvae, after one day
Method: (§1) Preparations of the present compounds (1), (2), (3), (4), (5), (6), (7), (13), (14), (15), (16), (18), (22), (23), (24), (25), (26), (27), (28), (29), (30), (31), (32), (33), (34), (35), (36), (38) and (39) obtained according to Formulation Example 44 were diluted so that the active ingredient concentration was 500 ppm to obtain test solutions.
To 100 mL of ion-exchanged water, 0.7 ml of the test solution was added (active ingredient concentration: 3.5 ppm). Into the solution, 20 last-instar larvae of Culex pipiens pallens were released. After one day, the number of surviving Culex pipiens pallens was examined and the death rate of the pest was calculated.
As a result, in treatments with the present compounds (1), (2), (3), (4), (5), (6), (7), (13), (14), (15), (16), (18), (22), (23), (24), (25), (26), (27), (28), (29), (30), (31), (32), (33), (34), (35), (36), (38) and (39), the death rate of the pest was 90% or more.

[2] = test system: Musca domestica; test: Test Example 2: treated filter paper with sucrose bait, death rate of Musca domestica; conditions: 500 ppm test solution, 0.7 ml on filter paper, 10 female imagoes, after 24 hours
Method: as §1, with “(7), (8), (9), (10),” for “(7),”, “(13),” for “(13), (14), (15), (16),”, “(18),” for “(18), (22),”, “(35),” for “(35), (36),”
(§2) A filter paper having a diameter of 5.5 cm was spread on the bottom of a polyethylene cup having a diameter of 5.5 cm and 0.7 ml of the test solution was added dropwise onto the filter paper. As a bait 30 mg of sucrose was uniformly placed on the filter paper. Into the polyethylene cup, 10 female imagoes of Musca domestica were released and the cup was sealed with a lid. After 24 hours, the number of surviving Musca domestica was examined and the death rate of the pest was calculated.
As a result, in treatments with the present compounds (1), (2), (3), (4), (5), (6), (7), (8), (9), (10), (13), (18), (23), (24), (25), (26), (27), (28), (29), (30), (31), (32), (33), (34), (35), (38) and (39), the death rate of the pest was 70% or more.

[3] = test system: Blattalla germanica; test: Test Example 3: treated filter paper with sucrose bait, death rate of Blattalla germanica; conditions: 500 ppm test solution, 0.7 ml on filter paper, 2 male imagoes, after 6 days; for pest or weed control at 500 ppm: 144 h
Method: as §1, with “compounds” for “compounds (1), (2),”, “(7), (9), (10),” for “(7),”, “(13),” for “(13), (14), (15), (16), (18), (22),”, “(35),” for “(35), (36),”
as §2, with “2 male” for “10 female”, “Blattalla germanica” for “Musca domestica”, “6 days,” for “24 hours,”
As a result, in treatments with the present compounds (3), (4), (5), (6), (7), (9), (10), (13), (23), (24), (25), (26), (27), (28), (29), (30), (31), (32), (33), (34), (35), (38) and (39), the death rate of the pest was 100%.

[4] = test system: Haemaphysalis longicornis; test: Test Example 5: treated filter paper pouch, death rate of ticks; conditions: 48 h, filter paper treated with 100 mg/m^2, non-blood-sucking nymphal ticks, 10 ticks/group, after 2 days, read-out: death rate of the tick
Method: Five milligrams of any one of the present compounds (19), (23), (24), (27), (28), (29), (32), (33), (35), (38) and (39) was dissolved in 10 mL of acetone. One milliliter of the acetone solution was uniformly applied on one side of a filter paper (TOYO No. 2; 5×10 cm), so that the filter paper was treated with 100 mg/m^2 of the present compound. After drying, the filter paper was folded in two and its edges were clipped to make a pouch. Non-blood-sucking nymphal ticks (Haemaphysalis longicornis, 10 ticks/group) were put into the pouch, and the pouch was sealed with clips. After 2 days, the number of surviving ticks was examined and the death rate was calculated.
As a result, in treatments with the present compounds (19), (23), (24), (27), (28), (29), (32), (33), (35), (38) and (39), the death rate of the tick was 90%.

Row | Structure (SMILES) | pest or weed control at 3.5 ppm [1] | pest or weed control at 500 ppm [2] | pest or weed control at 500 ppm [3] | death rate of the pest [3] | pest or weed control at 100 mg/m2 [4]
1 | C#CCCCCC(C(=O)OC)S(=O)(=O)CCC(F)(F)F (stereo not drawn) [present compound (1), methyl 2-(3,3,3-trifluoropropylsulfonyl)-7-octynoate] | ≥ 90% | ≥ 70% |  |  | 
2 | C#CCCCCC(F)(C(=O)OC)S(=O)(=O)CCC(F)(F)F (stereo not drawn) [present compound (2), methyl 2-fluoro-2-(3,3,3-trifluoropropylsulfonyl)-7-octynoate] | ≥ 90% | ≥ 70% |  |  | 
3 | C#CCCCCC(F)(C(N)=O)S(=O)(=O)CCC(F)(F)F (stereo not drawn) [present compound (3), 2-fluoro-2-(3,3,3-trifluoropropylsulfonyl)-7-octynamide] | ≥ 90% | ≥ 70% | 100% |  | 
4 | C#CCCCCC(Cl)(C(=O)OC)S(=O)(=O)CCC(F)(F)F (stereo not drawn) [present compound (4), methyl 2-chloro-2-(3,3,3-trifluoropropylsulfonyl)-7-octyonate] |  |  |  | 100% | 
5 | C#CCCCCC(Cl)(C(N)=O)S(=O)(=O)CCC(F)(F)F (stereo not drawn) [present compound (5), 2-chloro-2-(3,3,3-trifluoropropylsulfonyl)-7-octynamide] | ≥ 90% | ≥ 70% | 100% |  | 
6 | C#CCCCCC(C)(C(=O)OC)S(=O)(=O)CCC(F)(F)F (stereo not drawn) [present compound (6), methyl 2-methyl-2-(3,3,3-trifluoropropylsulfonyl)-7-octyonate] |  |  |  | 100% | 
7 | C#CCCCCC(C)(C(N)=O)S(=O)(=O)CCC(F)(F)F (stereo not drawn) [present compound (7), 2-methyl-2-(3,3,3-trifluoropropylsulfonyl)-7-octynamide] | ≥ 90% | ≥ 70% | 100% |  | 
8 | C#CCCC(C(=O)OC)S(=O)(=O)CCC(F)(F)F (stereo not drawn) [present compound (8), methyl 2-(3,3,3-trifluoropropylsulfonyl)-5-hexynoate] |  | ≥ 70% |  |  | 
9 | C#CCCC(F)(C(=O)OC)S(=O)(=O)CCC(F)(F)F (stereo not drawn) [present compound (9), methyl 2-fluoro-2-(3,3,3-trifluoropropylsulfonyl)-5-hexynoate] |  | ≥ 70% | 100% |  | 
10 | C#CCCC(F)(C(N)=O)S(=O)(=O)CCC(F)(F)F (stereo not drawn) [present compound (10), 2-fluoro-2-(3,3,3-trifluoropropylsulfonyl)-5-hexynamide] |  | ≥ 70% | 100% |  | 
11 | C#CCCCC(F)(C(N)=O)S(=O)(=O)CCC(F)(F)F (stereo not drawn) [present compound (13), 2-fluoro-2-(3,3,3-trifluoropropylsulfonyl)-6-heptynamide] | ≥ 90% | ≥ 70% | 100% |  | 
12 | C#CCCCCCC(C(=O)OC)S(=O)(=O)CCC(F)(F)F (stereo not drawn) [present compound (14), methyl 2-(3,3,3-trifluoropropylsulfonyl)-8-nonynoate] | ≥ 90% |  |  |  | 
13 | C#CCCCCCC(F)(C(=O)OC)S(=O)(=O)CCC(F)(F)F (stereo not drawn) [present compound (15), methyl 2-fluoro-2-(3,3,3-trifluoropropylsulfonyl)-8-nonynoate] | ≥ 90% |  |  |  | 
14 | C#CCCCCCC(F)(C(N)=O)S(=O)(=O)CCC(F)(F)F (stereo not drawn) [present compound (16), 2-fluoro-2-(3,3,3-trifluoropropylsulfonyl)-8-nonynamide] | ≥ 90% |  |  |  | 
15 | COC(=O)C(Cl)(CC=CC(F)(F)F)S(=O)(=O)CCC(F)(F)F (stereo not drawn) [present compound (18), methyl 2-chloro-6,6,6-trifluoro-2-(3,3,3-trifluoropropylsulfonyl)-4-hexenoate] | ≥ 90% | ≥ 70% |  |  | 
16 | N#CC(CC=CC(F)(F)F)S(=O)(=O)CCC(F)(F)F (stereo not drawn) [present compound (19), 6,6,6-trifluoro-2-(3,3,3-trifluoropropylsulfonyl)-4-hexenenitrile] |  |  |  |  | 90%
17 | C#CCCCCC(C#N)S(=O)(=O)CCC(F)(F)F (stereo not drawn) [present compound (23), 2-(3,3,3-trifluoropropylsulfonyl)-7-octynenitrile] | ≥ 90% | ≥ 70% | 100% |  | 90%
18 | C#CCCCCCC(C#N)S(=O)(=O)CCC(F)(F)F (stereo not drawn) [present compound (24), 2-(3,3,3-trifluoropropylsulfonyl)-8-nonynenitrile] | ≥ 90% | ≥ 70% | 100% |  | 90%
19 | C#CCCCCCCC(C#N)S(=O)(=O)CCC(F)(F)F (stereo not drawn) [present compound (25), 2-(3,3,3-trifluoropropylsulfonyl)-9-decynenitrile] | ≥ 90% | ≥ 70% | 100% |  | 
20 | C#CCCCCC(Cl)(C#N)S(=O)(=O)CCC(F)(F)F (stereo not drawn) [present compound (26), 2-chloro-2-(3,3,3-trifluoropropylsulfonyl)-7-octynenitrile] | ≥ 90% | ≥ 70% | 100% |  | 
21 | C#CCC(C)CCC(C#N)S(=O)(=O)CCC(F)(F)F (stereo not drawn) [present compound (27), 5-methyl-2-(3,3,3-trifluoropropylsulfonyl)-7-octynenitrile] | ≥ 90% | ≥ 70% | 100% |  | 90%
22 | C#CCC(CC)CCC(C(=O)OC)S(=O)(=O)CCC(F)(F)F (stereo not drawn) [present compound (30), methyl 5-ethyl-2-(3,3,3-trifluoropropylsulfonyl)-7-octynoate] | ≥ 90% | ≥ 70% | 100% |  | 
23 | C#CCC(CC)CCC(Cl)(C(=O)OC)S(=O)(=O)CCC(F)(F)F (stereo not drawn) [present compound (31), methyl 2-chloro-5-ethyl-2-(3,3,3-trifluoropropylsulfonyl)-7-octynoate] | ≥ 90% | ≥ 70% | 100% |  | 
24 | CC(C#N)(C/C=C/C(F)(F)F)S(=O)(=O)CCC(F)(F)F (stereo not drawn) [present compound (34), 6,6,6-trifluoro-2-methyl-2-(3,3,3-trifluoropropylsulfonyl)-4-hexenenitrile] | ≥ 90% | ≥ 70% | 100% |  | 
25 | CCC(=CCC(C(=O)OC)S(=O)(=O)CCC(F)(F)F)C(F)(F)F (stereo not drawn) [present compound (36), methyl 5-trifluoromethyl-2-(3,3,3-trifluoropropylsulfonyl)-4-heptenoate] | ≥ 90% |  |  |  | 
